Experimental data: the supplement of paper PMC10307832

Tests used:
Experiment in all cases: relative viability (nuclei count vs DMSO), 5 days (fraction); higher = more cells survive
SGI-1776 = compound: CN1CCC(CNc2ccc3ncc(-c4cccc(OC(F)(F)F)c4)n3n2)CC1 [SGI-1776]
Procedure, shortened: (§1)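 Hoechst staining, done together with fixation and permeabilisation, marked nuclei for 4× imaging and MetaXpress counting. This followed 5 days without medium change after lung cancer cell lines, kept overnight at 37 °C in 1536-well plates, were pinned with five library-drug doses (not always all listed) spaced by √10 on vehicle-anchored plates. Viability is the ratio of treated-well to vehicle-well nuclei, expressed as a median across plates. Plates passed only at control CV below 25% with at least one doubling.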

[1] = compound: C1COCCN1C2=NC(=NC3=C2OC4=C3C=CC=N4)C5=CC(=CC=C5)NC(=O)C6=CN=C(C=C6)N
Procedure, shortened: as §1

Entinostat = compound: Nc1ccccc1NC(=O)c1ccc(CNC(=O)OCc2cccnc2)cc1 [Entinostat]
Procedure, shortened: as §1

[2] = compound: C1COCCN1C2=NC(=NC3=C2OC4=C3C=CC=N4)C5=CC(=CC=C5)NC(=O)C6=CN=C(C=C6)N + COc1cc2c(Oc3ccc(NC(=O)C4(C(=O)Nc5ccc(F)cc5)CC4)cc3F)ccnc2cc1OCCCN1CCOCC1 [Foretinib] (partner 0.25 µM)
Procedure, shortened: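 Nuclei were stained with Hoechst during a one-step fixation (final 0.05% Triton X-100, 1% formaldehyde, 1 ug/ml Hoechst) carried out 5 days after dosing, then counted on 4× images. The cells, lung cancer lines in 1536-well plates, had been dosed by pin tool the day after seeding with one drug alone or a fixed anchor-drug dose plus five library-drug doses (not always all listed) in √10 steps. Relative viability is the nuclei count in treated wells divided by that in vehicle wells, and each value is the median of duplicate plates.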

| Cell Line | relative viability (SGI-1776; 0.08 µM) | relative viability (SGI-1776; 0.8 µM) | relative viability (SGI-1776; 2.53 µM) | relative viability (SGI-1776; 8 µM) | relative viability ([1]; 0.02 µM) | relative viability ([1]; 0.06325 µM) | relative viability ([1]; 0.2 µM) | relative viability ([1]; 0.6325 µM) | relative viability ([1]; 2 µM) | relative viability (Entinostat; 0.02 µM) | relative viability (Entinostat; 0.06325 µM) | relative viability (Entinostat; 0.2 µM) | relative viability (Entinostat; 0.6325 µM) | relative viability (Entinostat; 2 µM) | relative viability ([2]; first compound 0.02 µM) | relative viability ([2]; first compound 0.06325 µM) | relative viability ([2]; first compound 0.2 µM) | relative viability ([2]; first compound 0.6325 µM) | relative viability ([2]; first compound 2 µM) |
| --- | --- | --- | --- | --- | --- | --- | --- | --- | --- | --- | --- | --- | --- | --- | --- | --- | --- | --- | --- |
| NCI-H2342 | 1.1 | 0.927 | 0.914 | 1.07 | 1 | 1.1 | 0.938 | 0.928 | 0.827 | 1.07 | 1.08 | 0.907 | 0.908 | 0.73 | 0.981 | 1.24 | 1.02 | 1.01 | 0.88 |
| NCI-H1623 | 0.977 | 0.967 | 0.951 | 0.897 | 1.07 | 0.943 | 0.895 | 0.924 | 0.853 | 1 | 0.937 | 0.918 | 0.625 | 0.462 | 0.791 | 0.801 | 0.954 | 0.822 | 0.648 |
| SW 1573 | 1.06 | 0.965 | 0.959 | 0.754 | 0.954 | 1.09 | 1.03 | 0.918 | 0.611 | 0.998 | 1.11 | 1.09 | 1 | 0.874 | 0.931 | 1.07 | 1.09 | 0.877 | 0.688 |
| NCI-H2087 | 1.2 | 1.08 | 0.995 | 0.956 | 1.06 | 1.22 | 1.06 | 0.956 | 0.65 | 1.02 | 0.983 | 0.981 | 0.49 | 0.345 | 1.03 | 1.28 | 1.05 | 0.962 | 0.741 |
| NCI-H520 | 0.998 | 1.18 | 1 | 0.832 | 0.857 | 1.12 | 1.05 | 0.921 | 0.659 | 1 | 1.07 | 0.934 | 0.9 | 0.792 | 0.839 | 0.742 | 0.669 | 0.798 | 0.469 |
| Calu-6 | 1.06 | 1.02 | 0.976 | 0.852 | 1.05 | 1.04 | 1.01 | 0.998 | 0.685 | 1.02 | 1.02 | 1.02 | 0.761 | 0.544 | 1.12 | 0.912 | 0.987 | 0.851 | 0.648 |
| SK-LU-1 | 1.23 | 1.09 | 1.03 | 0.839 | 1.11 | 1.12 | 1.03 | 1.01 | 0.554 | 1.01 | 1.08 | 1.02 | 0.698 | 0.57 | 0.826 | 0.916 | 0.83 | 0.725 | 0.557 |
| LCLC-97TM1 | 1.01 | 1.03 | 1.11 | 1.01 | 1.03 | 0.99 | 0.994 | 1.1 | 0.905 | 1.1 | 1.11 | 1.02 | 0.732 | 0.702 | 0.974 | 0.964 | 0.931 | 1.04 | 0.825 |
| HCC-15 | 1.04 | 1.1 | 0.989 | 0.833 | 1.03 | 1.09 | 0.971 | 0.966 | 0.75 | 0.939 | 0.962 | 0.899 | 0.457 | 0.333 | 1.05 | 1.15 | 1.06 | 0.947 | 0.677 |
| H3255 | 1.07 | 1.04 | 1.04 | 0.829 | 0.944 | 0.956 | 0.945 | 0.951 | 0.8 | 0.98 | 0.915 | 0.764 | 0.535 | 0.369 | 0.985 | 0.97 | 0.865 | 0.754 | 0.718 |
| NCI-H1915 | 1.03 | 0.987 | 0.995 | 1 | 1.02 | 1.06 | 1 | 1.03 | 0.74 | 1.01 | 0.997 | 1.01 | 0.573 | 0.392 | 1.11 | 1.18 | 1.11 | 1.13 | 0.856 |
| NCI-H1650 | 0.945 | 0.879 | 0.84 | 0.442 | 0.865 | 1.01 | 0.8 | 0.896 | 0.618 | 0.999 | 0.929 | 0.964 | 0.635 | 0.334 | 1.12 | 1.15 | 0.974 | 1.22 | 0.76 |
| NCI-H647 | 0.988 | 1.09 | 0.839 | 0.544 | 0.862 | 1.02 | 0.905 | 0.867 | 0.546 | 1.05 | 1.04 | 0.897 | 0.462 | 0.165 | 1.17 | 1.16 | 1.13 | 1.14 | 0.667 |
| NCI-H2126 | 0.967 | 1.06 | 0.983 | 0.91 | 0.985 | 0.981 | 1.01 | 1.01 | 0.745 | 1.04 | 1.06 | 0.951 | 0.618 | 0.503 | 1.19 | 1.24 | 1.1 | 0.977 | 1.04 |
| NCI-H522 | 1.04 | 1.01 | 0.875 | 0.827 | 0.945 | 0.927 | 0.888 | 0.988 | 0.955 | 1.03 | 0.967 | 1.19 | 1.11 | 0.646 | – | – | – | – | – |
| HCC-44 | 1.02 | 0.957 | 0.93 | 0.962 | 0.986 | 0.919 | 0.97 | 1.07 | 0.959 | 0.99 | 0.858 | 0.773 | 0.414 | 0.275 | – | – | – | – | – |
| NCI-H1648 | 1 | 0.884 | 0.844 | 0.767 | 0.93 | 0.788 | 0.853 | 0.538 | 0.794 | 1.09 | 1 | 0.823 | 0.639 | 0.526 | – | – | – | – | – |
| NCI-H1792 | 1.01 | 0.984 | 0.859 | 0.662 | 0.953 | 0.965 | 0.893 | 0.655 | 0.393 | 1.16 | 1.1 | 1.02 | 0.649 | 0.451 | – | – | – | – | – |
